Data reported in US20150011751A1, “NOVEL TRIAZINE DERIVATIVE” (CARNA BIOSCIENCES, INC., priority 2012, published 2015).

Molecular target: Dephosphorylated BTK (Homo sapiens, UniProt Q06187)
Assay: Test of activity inhibition against dephosphorylated BTK (mobility shift assay)
Experimental: Kinase activity was measured by a mobility shift assay (MSA) method using QuickScout Screening Assist (trademark) MSA (commercially available kit, manufactured by Carna Biosciences, Inc.). FITC-labeled SRCtide peptide supplied with the kit was used as a substrate of a kinase reaction.
IC50 value was calculated by regression analysis of the inhibition ratio and the test compound concentration (logarithm).
Dephosphorylated BTK was obtained by adding a A protein phosphatase (Code No. P0753S, manufactured by New England BioLabs Inc.) and MnCl2 to a biotinylated BTK protein BTN-BTK (manufactured by Carna Biosciences, Inc.) enzyme solution so as to adjust the concentrations to 10 U/μg and 2 mM, respectively, reacting the mixture at 4° C. overnight, removing the A protein phosphatase through anti-[sequence]-tag antibody agarose gel chromatography, and performing buffer exchange using 10DG Desalting Column.

Sequence of Dephosphorylated BTK (Q06187 whole entry): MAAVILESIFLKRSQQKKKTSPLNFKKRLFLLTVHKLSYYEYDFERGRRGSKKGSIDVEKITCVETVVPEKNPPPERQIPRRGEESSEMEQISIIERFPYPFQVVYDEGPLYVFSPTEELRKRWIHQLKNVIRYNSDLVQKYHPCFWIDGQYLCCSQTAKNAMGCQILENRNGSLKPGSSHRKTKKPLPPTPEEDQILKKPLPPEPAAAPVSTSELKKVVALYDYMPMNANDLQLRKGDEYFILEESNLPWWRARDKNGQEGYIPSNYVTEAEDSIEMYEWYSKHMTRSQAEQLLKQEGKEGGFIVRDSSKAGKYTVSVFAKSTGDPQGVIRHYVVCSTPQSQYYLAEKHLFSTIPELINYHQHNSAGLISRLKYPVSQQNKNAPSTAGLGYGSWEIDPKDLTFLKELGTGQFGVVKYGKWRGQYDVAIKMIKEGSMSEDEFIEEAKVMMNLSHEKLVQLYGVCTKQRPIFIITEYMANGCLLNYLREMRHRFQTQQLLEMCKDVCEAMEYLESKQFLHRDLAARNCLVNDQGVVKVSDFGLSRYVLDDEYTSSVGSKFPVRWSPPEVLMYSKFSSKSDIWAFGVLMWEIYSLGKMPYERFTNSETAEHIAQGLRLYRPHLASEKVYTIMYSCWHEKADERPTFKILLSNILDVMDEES

CN1CCN(c2ccc(Nc3nc(N)nc(-c4cccc(N5CCc6cc(C7CC7)cc(F)c6C5=O)c4CO)n3)cc2)CC1 [Example 193, 2-[3-(4-Amino-6-{[4-(4-methylpiperazin-1-yl)phenyl]amino}-1,3,5-triazin-2-yl)-2-(hy-droxymethyl)phenyl]-6-cyclopropyl-8-fluoro-3,4-dihydroisoquinolin-1(2H)-one] and CN1CCN(C)C(c2ccc(Nc3nc(N)nc(-c4cccc(N5CCc6cc(C7CC7)cc(F)c6C5=O)c4CO)n3)cc2)C1=O (stereo not drawn) [Example 47, 2-[3-(5-Amino-6-{[4-(1,4-dimethyl-3-oxopipera-zin-2-yl)phenyl]ami-no}-1,3,5-triazin-2-yl)-2-(hydroxymethyl)phenyl]-6-cyclopropyl-8-fluoro-3,4-dihydro-isoquinolin-1(2H)-one] are within 1.5-fold of each other in IC50: 1.1 nM for the first, 1.6 nM for the second.

Compared with COCCOc1ccc(Nc2nc(N)nc(-c3cccc(NC(=O)c4cc5c(s4)CCCC5)c3CO)n2)cc1 [Example 134, N-[3-(4-Amino-6-{[4-(2-methoxyethoxy)phenyl]amino}-1,3,5-triazin-2-yl)-2-(hydroxymeth-yl)phenyl]-4,5,6,7-tetra-hydrobenzo[b]thio-phene-2-carboxamide], CC1CCc2sc(C(=O)Nc3cccc(-c4nc(N)nc(Nc5ccc(N6CCOCC6)cc5)n4)c3CO)cc2C1 (stereo not drawn) [Example 139, N-(3-{4-Amino-6-[(4-morpholinophenyl)amino]-1,3,5-triazin-2-yl}-2-(hydroxymethyl)phe-nyl)-5-methyl-4,5,6,7-tetrahydrobenzo[b] thiophene-2-carboxamide] is 1.8-fold higher in IC50: 0.9 nM for the first, 1.6 nM for the second.

Going from Nc1nc(Nc2ccc(N3CCOCC3)cc2)nc(-c2cccc(NC(=O)c3ccc(C4CC4)cc3F)c2CO)n1 [Example 145, N-(3-{4-Amino-6-[(4-morpholinophenyl)amino]-1,3,5-triazin-2-yl}-2-(hydroxymethyl)phe-nyl)-4-cyclopropyl-2-fluorobenzamide] to CC(C)(CO)c1ccc(C(=O)Nc2cccc(-c3nc(N)nc(Nc4ccc(N5CCOCC5)cc4)n3)c2CO)cc1 [Example 201, N-(3-{4-Amino-6-[(4-mor-pholinophenyl)amino]-1,3,5-triazin-2-yl}-2-(hydroxymethyl)phe-nyl)-4-(1-hydroxy-2-meth-ylpropan-2-yl)benz-amide], the IC50 rises from 1.8 nM to 3.4 nM (1.9-fold). The first is the more potent here.

Nc1nc(Nc2cnn(CCCO)c2)nc(-c2cccc(N3CCc4cc(C5CC5)cc(F)c4C3=O)c2CO)n1 [Example 225, 2-[3-(4-Amino-6-{[1-(3-hydroxypropyl)-1H-py-razol-4-yl]amino}-1,3,5-triazin-2-yl)-2-(hy-droxymethyl)phenyl]-6-cyclopropyl-8-fluoro-3,4-dihydro-isoquinolin-1(2H)-one] and Nc1nc(Nc2cnn(C3CC3)c2)nc(-c2cccc(N3CCc4cc(C5CC5)cc(F)c4C3=O)c2CO)n1 [Example 238, 2-(3-{4-Amino-6-[(1-cyclo-propyl-1H-pyrazol-4-yl)amino]-1,3,5-tri-azin-2-yl}-2-(hydroxy-methyl)phenyl)-6-cyclo-propyl-8-fluoro-3,4-dihydroisoquinolin-1 (2H)-one] are within 1.5-fold of each other in IC50: 1.2 nM for the first, 0.9 nM for the second.

Going from CN1CCN(C)C(c2ccc(Nc3nc(N)nc(-c4cccc(N5Cc6cc(C(C)(C)C)sc6C5=O)c4CO)n3)cc2)C1=O (stereo not drawn) [Example 83, 5-[3-(4-Amino-6-{[4-(1,4-dimethyl-3-oxo-piperazin-2-yl)phenyl]ami-no}-1,3,5-triazin-2-yl)-2-(hydroxymethyl)phenyl]-2-(tert-butyl)-4H-thieno[2,3-c]pyr-rol-6(5H)-one] to CN1CCn2cc(Nc3nc(N)nc(-c4cccc(N5CCc6cc(C7CC7)cc(F)c6C5=O)c4CO)n3)cc2C1=O [Example 268, 2-(3-{4-Amino-6-[(2-meth-yl-1-oxo-1,2,3,4-tetra-hydropyrrolo[1,2-a]pyrazin-7-yl)amino]-1,3,5-triazin-2-yl}-2-(hydroxymethyl)phe-nyl)-6-cyclopropyl-8-fluoro-3,4-dihydroisoquinolin-1(2H)-one], the IC50 falls from 1.8 nM to 1.2 nM (1.5-fold). The second is the more potent here.

CC(C)(C)c1ccc(C(=O)Nc2cccc(-c3nc(N)nc(Nc4ccc(CN5CCC(O)CC5)cc4)n3)c2CO)cc1 [Example 94, N-{3-[4-Amino-6-({4-[(4-hydroxypiperidin-1-yl)methyl]phenyl}ami-no)-1,3,5-triazin-2-yl]-2-(hydroxymethyl)phe-nyl}-4-(tert-butyl) benzamide] and CC(C)(C)c1ccc(C(=O)Nc2cccc(-c3nc(N)nc(Nc4ccc(CN5CCOCC5)cc4)n3)c2CO)cc1 [Example 79, N-[3-(4-Amino-6-{[4-(morpho-linomethyl)phe-nyl]amino}-1,3,5-triazin-2-yl)-2-(hydroxymeth-yl)phenyl]-4-(tert-butyl)benzamide] are within 1.5-fold of each other in IC50: 0.4 nM for the first, 0.6 nM for the second.

Going from Cc1c(NC(=O)c2ccc(C(C)(C)C)cc2)cccc1-c1ncnc(Nc2ccc(C(=O)NCCN(C)C)cc2)n1 [Example 17, 4-(tert-Butyl)-N-(3-{4-[(4-{[2-(dimethylami-no)ethyl]carbamoyl}phe-nyl)amino]-1,3,5-tri-azin-2-yl)-2-methyl-phenyl)benzamide] to Cc1c(NC(=O)c2ccc(C(C)(C)C)cc2)cccc1-c1nc(N)nc(Nc2ccc(N3CCCC(O)C3)cc2)n1 (stereo not drawn) [Example 81, N-[3-(4-Amino-6-{[4-(3-hydroxypiperidin-1-yl)phenyl]amino}-1,3,5-triazin-2-yl)-2-meth-ylphenyl]-4-(tert-bu-tyl)benzamide], the IC50 falls from 5.1 nM to 2.2 nM (2.3-fold). The second is the more potent here.

CN1CCC(n2cc(Nc3nc(N)nc(-c4cccc(N5CCc6cc(C7CC7)cc(F)c6C5=O)c4CO)n3)cn2)CC1 [Example 252, 2-[3-(4-Amino-6-{[1-(1-methylpiperidin-4-yl)-1H-pyrazol-4-yl]ami-no}-1,3,5-triazin-2-yl)-2-(hydroxymethyl)phenyl]-6-cyclopropyl-8-fluoro-3,4-dihydro-isoquinolin-1(2H)-one] and Nc1nc(Nc2cnn([C@H]3CCOC3)c2)nc(-c2cccc(N3CCc4cc(C5CC5)cc(F)c4C3=O)c2CO)n1 [Example 235, (S)-2-[3-(4-Amino-6-{[1-(tetrahydrofuran-3-yl)-1H-pyrazol-4-yl]amino}-1,3,5-triazin-2-yl)-2-(hydroxymeth-yl)phenyl]-6-cyclopropyl-8-fluoro-3,4-dihydro-isoquinolin-1(2H)-one] are the same in IC50: 0.8 nM for the first, 0.8 nM for the second.

First: Cc1c(NC(=O)c2ccc(C(C)(C)C)cc2)cccc1-c1nc(N)nc(Nc2ccc(N3C[C@@H](C)O[C@@H](C)C3)cc2)n1 [Example 85, N-[3-(4-Amino-6-{[4-((2S, 6R)-2,6-dimethyl-morpholino)phenyl]ami-no}-1,3,5-triazin-2-yl)-2-methylphenyl]-4-(tert-butyl)benzamide]
Second: CC(C)(C)c1ccc(C(=O)Nc2cccc(-c3nc(N)nc(Nc4ccc(N5CCCC(O)C5)cc4)n3)c2CO)cc1 (stereo not drawn) [Example 125, N-[3-(4-Amino-6-{[4-(3-hydroxypiperidin-1-yl)phenyl]amino}-1,3,5-triazin-2-yl)-2-(hy-droxymethyl)phenyl]-4-(tert-butyl)benzamide]
The IC50 of the first is 7.2-fold higher: 5.8 nM for the first, 0.8 nM for the second. The second is the more potent here.

CC(C)(C)c1ccc(C(=O)Nc2cccc(-c3nc(N)nc(Nc4ccc(CC#N)cc4)n3)c2CO)cc1 [Example 148, N-[3-(4-Amino-6-{[4-(cyano-methyl)phenyl]ami-no}-1,3,5-triazin-2-yl)-2-(hydroxymethyl)phenyl]-4-(tert-butyl) benzamide] and CC(C)(C)c1ccc(C(=O)Nc2cccc(-c3nc(N)nc(Nc4ccc(CO)cc4)n3)c2CO)cc1 [Example 111, N-[3-(4-Amino-6-{[4-(hydroxymethyl)phenyl]amino}-1,3,5-triazin-2-yl)-2-(hydroxymeth-yl)phenyl]-4-(tert-butyl) benzamide] are within 1.5-fold of each other in IC50: 0.8 nM for the first, 1 nM for the second.

Going from Nc1nc(Nc2cccc(Cn3cncn3)c2)nc(-c2cccc(N3CCc4cc(C5CC5)cc(F)c4C3=O)c2CO)n1 [Example 51, 2-{3-[4-({3-[(1H-1,2,4-Triazol-1-yl)methyl]phenyl}amino)-6-amino-1,3,5-triazin-2-yl]-2-(hydroxymethyl)phe-nyl}-6-cyclopropyl-8-fluoro-3,4-dihydroiso-quinolin-1(2H)-one] to Nc1nc(Nc2ccn(CC3CC3)c2)nc(-c2cccc(N3CCc4cc(C5CC5)cc(F)c4C3=O)c2CO)n1 [Example 248, 2-[3-(4-Amino-6-{[1-(cyclo-propylmethyl)-1H-pyrrol-3-yl]amino}-1,3,5-triazin-2-yl)-2-(hydroxymethyl)phenyl]-6-cyclopropyl-8-fluoro-3,4-dihydroisoquinolin-1(2H)-one], the IC50 rises from 2 nM to 3.2 nM (1.6-fold).

Compared with CC(C)(C)c1ccc(C(=O)Nc2cccc(-c3nc(N)nc(Nc4ccc(OCCCO)cc4)n3)c2CO)cc1 [Example 200, N-[3-(4-Amino-6-{[4-(3-hydroxypropoxy)phe-nyl]amino}-1,3,5-triazin-2-yl)-2-(hydroxymeth-yl)phenyl]-4-(tert-butyl)benzamide], CCN(CC)CCOc1ccc(Nc2nc(N)nc(-c3cccc(NC(=O)c4ccc(C(C)(C)C)cc4)c3CO)n2)cc1 [Example 159, N-{3-[4-Amino-6-({4-[2-(diethylamino)ethoxy]phenyl}amino)-1,3,5-triazin-2-yl]-2-(hy-droxymethyl)phenyl}-4-(tert-butyl)benzamide] is 7.4-fold higher in IC50: 0.8 nM for the first, 5.9 nM for the second. The first is the more potent here.

First: Nc1nc(Nc2cnn(CC(=O)N3CCOCC3)c2)nc(-c2cccc(N3CCc4cc(C5CC5)cc(F)c4C3=O)c2CO)n1 [Example 253, 2-[3-(4-Amino-6-{[1-(2-morpholino-2-oxoeth-yl)-1H-pyrazol-4-yl]ami-no}-1,3,5-triazin-2-yl)-2-(hydroxymethyl)phenyl]-6-cyclopropyl-8-fluoro-3,4-dihydro-isoquinolin-1(2H)-one]
Second: Cn1cc(Nc2nc(N)nc(-c3cccc(N4CCc5cc(C6CC6)cc(F)c5C4=O)c3CO)n2)cc1C(=O)O [Example 224, 4-({4-Amino-6-[3-(6-cyclo-propyl-8-fluoro-1-oxo-3,4-dihydroisoquinolin-2(1H)-yl)-2-(hydroxy-methyl)phenyl]-1,3,5-triazin-2-yl}ami-no)-1-methyl-1H-pyr-role-2-carboxylic acid]
The IC50 of the first is 8.2-fold lower: 0.8 nM for the first, 6.6 nM for the second.

CC(C)(C)c1ccc(C(=O)Nc2cccc(-c3nc(N)nc(Nc4ccc(OCCN5CCCC5)cc4)n3)c2CO)cc1 [Example 152, N-{3-[4-Amino-6-({4-[2-(pyrrolidin-1-yl)eth-oxy]phenyl}amino)-1,3,5-triazin-2-yl]-2-(hy-droxymethyl)phenyl}-4-(tert-butyl)benzamide] gave an IC50 of 1.2 nM.
